# Article PMC9132415, “Identification of 1H-pyrazolo[3,4-b]pyridine derivatives as novel and potent TBK1 inhibitors: design, synthesis, biological evaluation, and molecular docking study” (Journal of Enzyme Inhibition and Medicinal Chemistry, 2022)
# Columns and labels:
# Format in all cases: biochemical
# SAPK2a = SAPK2a (Homo sapiens, UniProt Q16539); assay: Kinase selectivity profile (SelectScreen); conditions: remaining kinase activity at 1.0 μM
# Method: (§1) Compound 15y was evaluated for their inhibitory activities against 31 kinases at a single concentration (1 µM). Two different assay platforms were available for profiling—activity and binding. The Z′-LYTE and Adapta kinase activity assays were used most extensively for profiling and a smaller subset of kinases might be profiled using the LanthaScreen Eu Kinase Binding Assays.
# MEK1 = MEK1 (Homo sapiens, UniProt Q02750); assay: Kinase selectivity profile (SelectScreen); conditions: remaining kinase activity at 1.0 μM
# Method: as §1
# PI3K(p110a/p85a) = PI3K(p110a/p85a) (Homo sapiens, UniProt P42336); assay: Kinase selectivity profile (SelectScreen); conditions: remaining kinase activity at 1.0 μM
# Method: as §1
# EphA5 = EphA5 (Homo sapiens, UniProt P54756); assay: Kinase selectivity profile (SelectScreen); conditions: remaining kinase activity at 1.0 μM
# Method: as §1
# PKA = PKA (Homo sapiens, UniProt P17612); assay: Kinase selectivity profile (SelectScreen); conditions: remaining kinase activity at 1.0 μM
# Method: as §1
# IGF-1R = IGF-1R (Homo sapiens, UniProt P08069); assay: Kinase selectivity profile (SelectScreen); conditions: remaining kinase activity at 1.0 μM
# Method: as §1
# ALK = ALK (Homo sapiens, UniProt Q9UM73); assay: Kinase selectivity profile (SelectScreen); conditions: remaining kinase activity at 1.0 μM
# Method: as §1
# PKCθ = PKCθ (Homo sapiens, UniProt Q04759); assay: Kinase selectivity profile (SelectScreen); conditions: remaining kinase activity at 1.0 μM
# Method: as §1
# PDGFRβ = PDGFRβ (Homo sapiens, UniProt P09619); assay: Kinase selectivity profile (SelectScreen); conditions: remaining kinase activity at 1.0 μM
# Method: as §1
# EGFR = EGFR (Homo sapiens, UniProt P00533); assay: Kinase selectivity profile (SelectScreen); conditions: remaining kinase activity at 1.0 μM
# Method: as §1
# PRAK = PRAK (Homo sapiens, UniProt Q8IW41); assay: Kinase selectivity profile (SelectScreen); conditions: remaining kinase activity at 1.0 μM
# Method: as §1
# PKCα = PKCα (Homo sapiens, UniProt P17252); assay: Kinase selectivity profile (SelectScreen); conditions: remaining kinase activity at 1.0 μM
# Method: as §1
# IKKβ = IKKβ (Homo sapiens, UniProt O14920); assay: Kinase selectivity profile (SelectScreen); conditions: remaining kinase activity at 1.0 μM
# Method: as §1
# PI3K(p110b/p85a) = PI3K(p110b/p85a) (Homo sapiens, UniProt P42338); assay: Kinase selectivity profile (SelectScreen); conditions: remaining kinase activity at 1.0 μM
# Method: as §1
# PI3K(p120g) = PI3K(p120g) (Homo sapiens, UniProt P48736); assay: Kinase selectivity profile (SelectScreen); conditions: remaining kinase activity at 1.0 μM
# Method: as §1
# SRPK1 = SRPK1 (Homo sapiens, UniProt Q96SB4); assay: Kinase selectivity profile (SelectScreen); conditions: remaining kinase activity at 1.0 μM
# Method: as §1
# PKBα = PKBα (Homo sapiens, UniProt P31749); assay: Kinase selectivity profile (SelectScreen); conditions: remaining kinase activity at 1.0 μM
# Method: as §1
# Rse = Rse (Homo sapiens, UniProt Q06418); assay: Kinase selectivity profile (SelectScreen); conditions: remaining kinase activity at 1.0 μM
# Method: as §1
# mTOR = mTOR (Homo sapiens, UniProt P42345); assay: Kinase selectivity profile (SelectScreen); conditions: remaining kinase activity at 1.0 μM
# Method: as §1
# ASK1 = ASK1 (Homo sapiens, UniProt Q99683); assay: Kinase selectivity profile (SelectScreen); conditions: remaining kinase activity at 1.0 μM
# Method: as §1
# EphB4 = EphB4 (Homo sapiens, UniProt P54760); assay: Kinase selectivity profile (SelectScreen); conditions: remaining kinase activity at 1.0 μM
# Method: as §1
# CK1γ1 = CK1γ1 (Homo sapiens, UniProt Q9HCP0); assay: Kinase selectivity profile (SelectScreen); conditions: remaining kinase activity at 1.0 μM
# Method: as §1
# PLK3 = PLK3 (Homo sapiens, UniProt Q9H4B4); assay: Kinase selectivity profile (SelectScreen); conditions: remaining kinase activity at 1.0 μM
# Method: as §1
# eEF-2K = eEF-2K (Homo sapiens, UniProt O00418); assay: Kinase selectivity profile (SelectScreen); conditions: remaining kinase activity at 1.0 μM
# Method: as §1
# MAPKAP-K2 = MAPKAP-K2 (Homo sapiens, UniProt P49137); assay: Kinase selectivity profile (SelectScreen); conditions: remaining kinase activity at 1.0 μM
# Method: as §1
# PKG1α = PKG1α (Homo sapiens, UniProt Q13976); assay: Kinase selectivity profile (SelectScreen); conditions: remaining kinase activity at 1.0 μM
# Method: as §1
# TBK1 = target: T1, TBK1 (Homo sapiens, UniProt Q9UHD2); assay: FRET-based Z'-LYTE TBK1 enzymatic assay; parameters: purchased Thermo Scientific A31513; conditions: 100 µM ATP
# T1 sequence (Q9UHD2 1-729): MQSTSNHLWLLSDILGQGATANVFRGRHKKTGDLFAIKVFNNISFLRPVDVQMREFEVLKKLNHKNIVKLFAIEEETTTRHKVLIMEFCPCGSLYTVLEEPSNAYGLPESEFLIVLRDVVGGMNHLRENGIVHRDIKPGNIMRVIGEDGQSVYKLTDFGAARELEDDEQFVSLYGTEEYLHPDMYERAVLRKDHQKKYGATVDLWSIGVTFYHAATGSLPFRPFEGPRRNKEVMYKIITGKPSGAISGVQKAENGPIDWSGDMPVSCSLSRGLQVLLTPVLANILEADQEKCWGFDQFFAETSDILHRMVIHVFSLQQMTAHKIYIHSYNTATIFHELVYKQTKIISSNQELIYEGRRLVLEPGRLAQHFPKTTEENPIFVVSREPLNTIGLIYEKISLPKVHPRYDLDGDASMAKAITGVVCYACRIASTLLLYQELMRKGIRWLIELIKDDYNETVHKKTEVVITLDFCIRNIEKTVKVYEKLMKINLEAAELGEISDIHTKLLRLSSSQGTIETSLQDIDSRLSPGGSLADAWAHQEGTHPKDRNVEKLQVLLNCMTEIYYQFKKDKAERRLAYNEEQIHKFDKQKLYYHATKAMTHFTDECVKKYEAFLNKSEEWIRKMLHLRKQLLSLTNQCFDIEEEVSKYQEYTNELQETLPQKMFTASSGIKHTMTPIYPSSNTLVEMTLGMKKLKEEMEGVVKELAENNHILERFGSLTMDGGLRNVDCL
# Chain of SAPK2a (Q16539 whole entry): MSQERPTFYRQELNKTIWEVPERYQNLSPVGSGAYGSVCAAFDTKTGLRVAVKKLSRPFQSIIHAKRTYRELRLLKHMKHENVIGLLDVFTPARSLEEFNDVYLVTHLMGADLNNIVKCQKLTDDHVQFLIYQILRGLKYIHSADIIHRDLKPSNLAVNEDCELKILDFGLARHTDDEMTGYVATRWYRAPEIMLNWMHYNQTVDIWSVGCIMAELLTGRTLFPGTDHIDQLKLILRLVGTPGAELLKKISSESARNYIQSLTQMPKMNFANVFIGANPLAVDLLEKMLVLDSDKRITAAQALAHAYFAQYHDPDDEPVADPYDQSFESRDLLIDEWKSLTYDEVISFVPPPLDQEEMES
# Chain of PRAK (Q8IW41 whole entry): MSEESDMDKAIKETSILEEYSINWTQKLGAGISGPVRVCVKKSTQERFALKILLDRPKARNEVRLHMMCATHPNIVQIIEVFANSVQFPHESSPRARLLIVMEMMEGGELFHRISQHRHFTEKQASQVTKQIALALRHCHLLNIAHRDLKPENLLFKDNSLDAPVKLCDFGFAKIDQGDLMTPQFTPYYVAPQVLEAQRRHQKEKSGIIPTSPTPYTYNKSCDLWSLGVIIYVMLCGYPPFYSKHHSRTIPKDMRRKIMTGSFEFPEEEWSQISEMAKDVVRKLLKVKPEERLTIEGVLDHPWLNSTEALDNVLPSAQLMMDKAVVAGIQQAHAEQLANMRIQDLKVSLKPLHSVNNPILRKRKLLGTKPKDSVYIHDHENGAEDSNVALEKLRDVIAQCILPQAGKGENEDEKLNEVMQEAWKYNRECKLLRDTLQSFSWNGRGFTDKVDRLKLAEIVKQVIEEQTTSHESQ
# Chain of PDGFRβ (P09619 33-1106): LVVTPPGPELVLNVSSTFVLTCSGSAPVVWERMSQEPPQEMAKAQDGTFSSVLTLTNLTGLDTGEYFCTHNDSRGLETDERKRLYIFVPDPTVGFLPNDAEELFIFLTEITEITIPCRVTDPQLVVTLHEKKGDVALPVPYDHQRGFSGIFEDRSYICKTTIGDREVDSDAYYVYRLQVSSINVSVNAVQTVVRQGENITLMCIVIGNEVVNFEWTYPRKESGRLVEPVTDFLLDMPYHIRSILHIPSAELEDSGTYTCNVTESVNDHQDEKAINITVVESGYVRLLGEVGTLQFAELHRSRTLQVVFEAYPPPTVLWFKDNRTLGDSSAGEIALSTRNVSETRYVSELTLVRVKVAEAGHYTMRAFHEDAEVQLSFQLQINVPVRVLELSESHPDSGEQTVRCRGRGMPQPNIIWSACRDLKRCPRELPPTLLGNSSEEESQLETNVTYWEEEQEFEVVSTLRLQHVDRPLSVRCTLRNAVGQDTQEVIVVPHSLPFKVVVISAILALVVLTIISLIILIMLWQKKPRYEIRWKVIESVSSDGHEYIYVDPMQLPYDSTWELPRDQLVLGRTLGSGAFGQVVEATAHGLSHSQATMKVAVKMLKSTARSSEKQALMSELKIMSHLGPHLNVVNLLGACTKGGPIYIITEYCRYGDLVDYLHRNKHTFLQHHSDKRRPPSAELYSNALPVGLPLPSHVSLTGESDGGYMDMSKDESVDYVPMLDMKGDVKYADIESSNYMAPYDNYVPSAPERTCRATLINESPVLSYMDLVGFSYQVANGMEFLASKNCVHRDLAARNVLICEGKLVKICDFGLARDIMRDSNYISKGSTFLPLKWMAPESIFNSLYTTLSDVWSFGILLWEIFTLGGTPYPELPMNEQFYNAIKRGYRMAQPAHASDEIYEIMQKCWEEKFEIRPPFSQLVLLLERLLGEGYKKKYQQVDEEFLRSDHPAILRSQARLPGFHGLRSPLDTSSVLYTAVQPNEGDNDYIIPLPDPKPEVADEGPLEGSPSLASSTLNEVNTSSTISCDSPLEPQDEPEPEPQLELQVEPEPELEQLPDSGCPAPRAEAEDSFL
# Chain of PKBα (P31749 whole entry): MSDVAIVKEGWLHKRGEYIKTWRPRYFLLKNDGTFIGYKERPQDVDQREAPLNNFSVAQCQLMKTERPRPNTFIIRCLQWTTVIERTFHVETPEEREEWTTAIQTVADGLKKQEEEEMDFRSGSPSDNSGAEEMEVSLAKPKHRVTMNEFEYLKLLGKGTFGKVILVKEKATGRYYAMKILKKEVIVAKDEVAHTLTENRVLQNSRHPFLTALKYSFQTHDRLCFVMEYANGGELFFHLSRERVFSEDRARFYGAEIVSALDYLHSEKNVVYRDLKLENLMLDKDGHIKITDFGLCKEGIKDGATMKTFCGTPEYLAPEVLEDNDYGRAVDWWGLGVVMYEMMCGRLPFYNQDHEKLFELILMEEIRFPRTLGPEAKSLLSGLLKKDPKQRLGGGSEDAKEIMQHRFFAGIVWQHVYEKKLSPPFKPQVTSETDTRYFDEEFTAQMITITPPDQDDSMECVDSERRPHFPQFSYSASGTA
# Chain of CK1γ1 (Q9HCP0 whole entry): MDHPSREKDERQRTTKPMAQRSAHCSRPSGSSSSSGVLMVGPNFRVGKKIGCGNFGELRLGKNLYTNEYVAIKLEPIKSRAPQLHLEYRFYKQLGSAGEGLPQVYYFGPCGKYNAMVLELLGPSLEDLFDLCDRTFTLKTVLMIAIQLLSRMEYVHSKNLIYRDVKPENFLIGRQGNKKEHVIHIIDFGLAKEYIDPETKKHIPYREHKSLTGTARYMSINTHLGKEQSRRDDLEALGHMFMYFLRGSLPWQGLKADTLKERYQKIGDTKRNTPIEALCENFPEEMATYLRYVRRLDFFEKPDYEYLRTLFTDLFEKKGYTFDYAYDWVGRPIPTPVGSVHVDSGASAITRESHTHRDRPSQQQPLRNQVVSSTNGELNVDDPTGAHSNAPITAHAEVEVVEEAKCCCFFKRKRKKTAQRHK
# Chain of ALK (Q9UM73 19-1620): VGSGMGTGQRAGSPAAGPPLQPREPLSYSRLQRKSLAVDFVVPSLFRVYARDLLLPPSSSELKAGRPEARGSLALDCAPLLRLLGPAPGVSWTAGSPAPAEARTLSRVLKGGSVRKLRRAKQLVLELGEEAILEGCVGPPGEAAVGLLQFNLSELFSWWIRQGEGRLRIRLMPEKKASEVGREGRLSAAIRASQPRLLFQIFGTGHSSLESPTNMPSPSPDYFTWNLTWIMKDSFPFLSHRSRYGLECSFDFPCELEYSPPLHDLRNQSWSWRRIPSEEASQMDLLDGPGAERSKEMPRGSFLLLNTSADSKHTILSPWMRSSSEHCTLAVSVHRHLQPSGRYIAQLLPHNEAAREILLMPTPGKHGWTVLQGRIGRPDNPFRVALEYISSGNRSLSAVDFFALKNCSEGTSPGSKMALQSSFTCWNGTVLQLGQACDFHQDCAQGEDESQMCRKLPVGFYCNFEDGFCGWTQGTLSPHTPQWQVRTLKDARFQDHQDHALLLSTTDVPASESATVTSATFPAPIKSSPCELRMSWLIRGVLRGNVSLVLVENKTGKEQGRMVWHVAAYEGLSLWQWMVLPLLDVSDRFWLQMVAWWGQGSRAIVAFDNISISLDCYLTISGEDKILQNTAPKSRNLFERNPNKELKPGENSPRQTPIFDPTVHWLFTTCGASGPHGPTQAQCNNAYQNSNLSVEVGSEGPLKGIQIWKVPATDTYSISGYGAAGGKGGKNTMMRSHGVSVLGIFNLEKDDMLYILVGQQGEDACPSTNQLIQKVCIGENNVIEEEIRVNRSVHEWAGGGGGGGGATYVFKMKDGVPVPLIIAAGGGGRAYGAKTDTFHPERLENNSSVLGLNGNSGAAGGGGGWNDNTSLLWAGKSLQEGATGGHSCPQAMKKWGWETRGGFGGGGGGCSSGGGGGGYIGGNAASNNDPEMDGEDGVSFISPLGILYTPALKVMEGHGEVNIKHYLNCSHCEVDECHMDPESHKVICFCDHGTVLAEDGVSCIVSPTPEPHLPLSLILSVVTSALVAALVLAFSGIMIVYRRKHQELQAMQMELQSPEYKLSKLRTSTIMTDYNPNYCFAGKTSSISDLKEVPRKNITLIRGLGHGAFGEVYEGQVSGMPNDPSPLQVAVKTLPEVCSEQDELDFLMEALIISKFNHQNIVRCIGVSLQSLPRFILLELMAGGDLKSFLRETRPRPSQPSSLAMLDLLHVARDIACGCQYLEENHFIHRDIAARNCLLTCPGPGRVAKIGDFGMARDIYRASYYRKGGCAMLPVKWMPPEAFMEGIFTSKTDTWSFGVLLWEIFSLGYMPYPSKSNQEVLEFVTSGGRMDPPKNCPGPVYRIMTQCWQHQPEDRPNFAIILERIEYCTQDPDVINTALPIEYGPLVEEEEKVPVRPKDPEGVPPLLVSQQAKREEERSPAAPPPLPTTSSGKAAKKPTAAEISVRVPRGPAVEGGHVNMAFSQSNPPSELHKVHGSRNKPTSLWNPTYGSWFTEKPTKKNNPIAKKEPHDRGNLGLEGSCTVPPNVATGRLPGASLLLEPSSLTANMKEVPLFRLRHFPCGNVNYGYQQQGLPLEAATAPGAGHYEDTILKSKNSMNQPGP
# Chain of SRPK1 (Q96SB4 whole entry): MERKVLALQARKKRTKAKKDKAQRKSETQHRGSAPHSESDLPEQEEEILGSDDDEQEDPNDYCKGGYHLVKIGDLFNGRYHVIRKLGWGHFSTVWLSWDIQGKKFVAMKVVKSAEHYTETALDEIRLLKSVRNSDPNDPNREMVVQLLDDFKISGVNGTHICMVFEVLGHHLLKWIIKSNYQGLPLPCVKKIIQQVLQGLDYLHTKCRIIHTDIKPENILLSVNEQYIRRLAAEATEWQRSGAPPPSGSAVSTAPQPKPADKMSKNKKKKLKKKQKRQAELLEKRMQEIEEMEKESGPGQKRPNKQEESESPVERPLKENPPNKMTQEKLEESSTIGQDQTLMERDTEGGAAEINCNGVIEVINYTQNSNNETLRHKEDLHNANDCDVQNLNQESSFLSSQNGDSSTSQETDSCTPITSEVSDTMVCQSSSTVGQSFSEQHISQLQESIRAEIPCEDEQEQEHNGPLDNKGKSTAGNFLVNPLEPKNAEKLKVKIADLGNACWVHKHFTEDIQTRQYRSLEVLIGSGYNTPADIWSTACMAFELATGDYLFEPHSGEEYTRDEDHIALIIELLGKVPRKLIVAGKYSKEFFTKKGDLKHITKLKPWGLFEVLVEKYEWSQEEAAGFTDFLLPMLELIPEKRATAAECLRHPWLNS
compound,measurement,setting,value
Cc1nc2c(F)cc(-c3n[nH]c4ncc(-c5cccc(S(N)(=O)=O)c5)cc34)cc2n1C(C)C [Compound 15y],"%kinase activity @ 1.0 μM, SAPK2a",SAPK2a,60%
same,"%kinase activity @ 1.0 μM, MEK1",MEK1,52%
same,"%kinase activity @ 1.0 μM, PI3K(p110a/p85a)",PI3K(p110a/p85a),69%
same,"%kinase activity @ 1.0 μM, EphA5",EphA5,51%
same,"%kinase activity @ 1.0 μM, PKA",PKA,84%
same,"%kinase activity @ 1.0 μM, IGF-1R",IGF-1R,88%
same,"%kinase activity @ 1.0 μM, ALK",ALK,28%
same,"%kinase activity @ 1.0 μM, PKCθ",PKCθ,33%
same,"%kinase activity @ 1.0 μM, PDGFRβ",PDGFRβ,21%
same,"%kinase activity @ 1.0 μM, EGFR",EGFR,66%
same,"%kinase activity @ 1.0 μM, PRAK",PRAK,60%
same,"%kinase activity @ 1.0 μM, PKCα",PKCα,27%
same,"%kinase activity @ 1.0 μM, IKKβ",IKKβ,32%
same,"%kinase activity @ 1.0 μM, PI3K(p110b/p85a)",PI3K(p110b/p85a),95%
same,"%kinase activity @ 1.0 μM, PI3K(p120g)",PI3K(p120g),32%
same,"%kinase activity @ 1.0 μM, SRPK1",SRPK1,58%
same,activity at 1 µM,PKBα,111%
same,"%kinase activity @ 1.0 μM, Rse",Rse,49%
same,"%kinase activity @ 1.0 μM, mTOR",mTOR,30%
same,"%kinase activity @ 1.0 μM, ASK1",ASK1,56%
same,"%kinase activity @ 1.0 μM, EphB4",EphB4,77%
same,"%kinase activity @ 1.0 μM, CK1γ1",CK1γ1,33%
same,"%kinase activity @ 1.0 μM, PLK3",PLK3,101%
same,"%kinase activity @ 1.0 μM, eEF-2K",eEF-2K,108%
same,"%kinase activity @ 1.0 μM, MAPKAP-K2",MAPKAP-K2,95%
same,"%kinase activity @ 1.0 μM, PKG1α",PKG1α,54%
same,inhibition at 0.0001 µM,"TBK1; compound at 0.1 nM, read-out: TBK1 inhibition (%) 0.1 nM",33.6%
same,inhibition at 0.001 µM,"TBK1; compound at 1 nM, read-out: TBK1 inhibition (%) 1 nM",88.8%
same,inhibition at 0.01 µM,"TBK1; compound at 10 nM, read-out: TBK1 inhibition (%) 10 nM",93.8%
same,inhibition at 0.1 µM,"TBK1; compound at 100 nM, read-out: TBK1 inhibition (%) 100 nM",102%
same,inhibition at 1 µM,"TBK1; compound at 1 μM, read-out: TBK1 inhibition (%) 1 μM",53.9%
same,IC50,TBK1; mean of two separate experiments,0.2 nM
